Tested on: immobilized GST-tagged bait protein domains
Assay: ProP-PD phage selections (HD2 P8, sublibraries, HD2 P3, HD1 P8) with NGS and confidence level
Format: binding, human
Settings: for HD2_endomembrane confidence: HD2 P8 endomembrane sublibrary
[1] = HD2 library, bait CALM1_EF-hand__P0DP23_2_149, benchmark motif instance, in_library_check FALSE, in_library_coverage 0
[2] = bait PABP-B_PABP__P11940_544_623, HD2 library, confidence level (1-4) of best matching selected peptide
[3] = bait PABP-B_PABP__P11940_544_623, HD2 library, specificity score of best matching selected peptide
[4] = bait PABP-B_PABP__P11940_544_623, HD2 library, whether the validated benchmark motif instance was recovered in the ProP-PD selection (TRUE/FALSE)
[5] = library HD2, bait KLC1_TPR__Q07866_203_497, whether the validated benchmark motif instance was recovered in the ProP-PD selection (TRUE/FALSE)
[6] = library HD2, bait WDR5_WD_1234567_P61964_21_334, validated benchmark motif instance, in_library_check TRUE, TRUE/FALSE = instance recovered in ProP-PD selection
[7] = library HD2, bait YAP1_WW_1_P46937_169_207, confidence level of best matching selected peptide (4 High, 2-3 Medium, 1 Low)
[8] = library HD2, bait YAP1_WW_1_P46937_169_207, specificity score of best matching selected peptide
[9] = library HD2, bait YAP1_WW_1_P46937_169_207, validated benchmark motif instance, in_library_check TRUE, TRUE/FALSE = instance recovered in ProP-PD selection
[10] = bait KPNA4_Arm (O00629 68-487), HD2 library, benchmark motif instance recovered in the ProP-PD selection (TRUE/FALSE)
[11] = library HD2, bait EPS15_EH__P42566_121_215, whether the validated benchmark motif instance was recovered in the ProP-PD selection (TRUE/FALSE)
[12] = bait AP2B1_adaptin__P63010_700_937, HD1 P8 library, confidence level (4 = High, 2-3 = Medium, 1 = Low)
[13] = bait AP2B1_adaptin__P63010_700_937, HD1 P8 library, mean NGS counts over replicate selections
[14] = bait AP2B1_adaptin__P63010_700_937, HD1 P8 library, mean proportion of NGS counts
[15] = bait CALM1_EF-hand__P0DP23_2_149, library HD2, benchmarking set of validated motif instances, TRUE = motif instance recovered in the ProP-PD selection
[16] = library HD2, bait Keap1_KELCH__Q14145_321_609, whether the validated benchmark motif instance was recovered in the ProP-PD selection (TRUE/FALSE)
[17] = library HD2, bait EIF4E_eIF4E__P06730_1_217, whether the validated benchmark motif instance was recovered in the ProP-PD selection (TRUE/FALSE)
[18] = bait MAP1LC3A_ATG8 (Q9H492 2-121), HD2 library, benchmark motif instance recovered in the ProP-PD selection (TRUE/FALSE)
[19] = bait MAP1LC3B_ATG8 (Q9GZQ8 2-119), HD2 library, benchmark motif instance recovered in the ProP-PD selection (TRUE/FALSE)
[20] = bait MAP1LC3A_ATG8__Q9H492_2_121, confidence level (4 = High, 2-3 = Medium, 1 = Low)
[21] = library HD2, bait EPS15_EH__P42566_121_215, best matching peptide
[22] = library HD2, bait EPS15_EH__P42566_121_215, confidence level of best matching peptide (4 High, 2-3 Medium, 1 Low)

For “LKKLPSAVIALQRSFRSKRSKMLLEINRQK [IQCB1 321-336]”, the motif_found [1] was “FALSE”.
Work on NLQLPSLDEQVIPARL yielded an HD confidence (bait ANKRA2_Ank__Q9H9E1_142_313, library HD) of 3, an HD count proportions (bait ANKRA2_Ank__Q9H9E1_142_313, library HD, mean normalised NGS counts) of 0.0005556 and an HD mean counts (bait ANKRA2_Ank__Q9H9E1_142_313, library HD, mean raw NGS counts, all selections) of 7.75.
For LNPNAEVWGAPVLHLE, the best_confidence [2] was 4, the best_specificity [3] was 1 and the motif_found [4] was “TRUE”.
With VSVDSIPLEWDHTGDVGGSSSHE the motif_found [5] was “FALSE”.
ARTKQ was tested, and the motif_found [6] was “FALSE”.
WQPFPDDHSACLRPGS was tested, and the HD2 confidence (bait AP2B1_adaptin__P63010_700_937, HD2 P8 selection, non primary paralogue peptide match, confidence level -4 to 4: 4 = High, 3 or 2 = Medium, 1 = Low, 0 = Filtered/Noise) was 3.
For TPPPPYTVAPGRPLTA, the best_confidence [7] was 4, the best_specificity [8] was 1 and the motif_found [9] was “TRUE”.
With PREHQTGSARSEGYYPISKKE the motif_found [6] was “FALSE”.
For GDSQGRKRRQTSMTDFYHSKRRLIFSKRKP-, the motif_found [10] was “FALSE”.
For ETPGDGKPPALPPKQS, the p3_HD2 confidence (bait CRK_SH3_1_P46108_124_198, HD2 P3 library, confidence level (4 = High, 2-3 = Medium, 1 = Low)) was 3, the p3_HD2 mean counts (bait CRK_SH3_1_P46108_124_198, HD2 P3 library, mean NGS counts over replicate selections) was 437.0 and the p3_HD2 count proportions (bait CRK_SH3_1_P46108_124_198, HD2 P3 library, mean proportion of NGS counts) was 0.01474.
For TSNNRLLNKRRKKQAGSSSA, the motif_found [10] was “FALSE”.
For NATRQQQLEWDDSTLSY-----, the motif_found [5] was “FALSE”.
In the case of --MELNSLLILLEAAEYLERRDREA [MXD4 6-16], the motif_found (HD2 library, bait SIN3A_PAH__Q96ST3_295_383, benchmark motif instance, in_library_check FALSE, in_library_coverage 0) is reported as “FALSE”.
“KDKEEVQRKRQKLMPNFSDS,IKDKEEVQRKRQKLMPNFSD [NFKB1 361-365]” was tested, and the motif_found (HD2 library, bait KPNA4_Arm__O00629_68_487, benchmark motif instance, in_library_check FALSE, in_library_coverage 0) was “FALSE”.
In the case of ADTPPPAYLPPEDPMT, the best_confidence [7] is reported as 2, the best_specificity [8] is reported as 1 and the motif_found [9] is reported as “TRUE”.
In the case of EEARKSPTPSAPVPLTEPAA, the motif_found (library HD2, bait TSG101_UEV__Q99816_1_145, validated benchmark motif instance, in_library_check TRUE, TRUE/FALSE = instance recovered in ProP-PD selection) is reported as “FALSE”.
For PAAAAANELNNNLPGGAPAA, the motif_found (bait SPSB1_SPRY__Q96BD6_30_231, HD2 library, whether the validated benchmark motif instance was recovered in the ProP-PD selection (TRUE/FALSE)) was “FALSE”.
With FITGLTRTNPFSDRTAAPG the motif_found [11] was “FALSE”.
RVTENNLQTPNPTASEFIPKGGSTSRL was tested, and the motif_found [4] was “FALSE”.
GGMNWADLLPPPPAHP was tested, and the best_confidence (library HD2, bait VASP_EVH1__P50552_1_114, confidence level of best matching selected peptide (4 High, 2-3 Medium, 1 Low)) was 3, the best_specificity (library HD2, bait VASP_EVH1__P50552_1_114, specificity score of best matching selected peptide) was 0.99 and the motif_found (library HD2, bait VASP_EVH1__P50552_1_114, validated benchmark motif instance, in_library_check TRUE, TRUE/FALSE = instance recovered in ProP-PD selection) was “TRUE”.
With KSTLNPNAKEFNPRSF the best_confidence [2] was 2, the best_specificity [3] was 1 and the motif_found [4] was “TRUE”.
In the case of RCTSPGGSYGHLSIGTMSPSLG, the motif_found (bait SUFU_SUFU__Q9UMX1_1_484, HD2 library, whether the validated benchmark motif instance was recovered in the ProP-PD selection (TRUE/FALSE)) is reported as “FALSE”.
Work on DGTISVPETWAKFSND yielded an HD confidence [12] of 4, an HD mean counts [13] of 1.5 and an HD count proportions [14] of 0.0006297.
ARTKQTA was tested, and the motif_found [6] was “FALSE”.
SSDGTCVAARTRPVLSCKKRR was tested, and the motif_found [6] was “FALSE”.
With SPANSFHFKEAWKHAIQKAKHMPDPWA [EEF2K] the motif_found [15] was “FALSE”.
ESAKAADDPENGERESHTPV was tested, and the motif_found [16] was “FALSE”.
In the case of SSNPPTSVPTAPALSSVIAP, the motif_found (HD2 library, bait TSG101_UEV__Q99816_1_145, known motif instance of the benchmarking set found (TRUE) or not found (FALSE) among selected peptides) is reported as “FALSE”.
For RMSQIKRLLSE, the motif_found (bait PTK2_Focal-AT__Q05397_891_1050, HD2 library, whether the validated benchmark motif instance was recovered in the ProP-PD selection (TRUE/FALSE)) was “FALSE”.
In the case of “SFLSRRAARTIQTAFRQYRMNKNFERLRSSA [IQSEC2]”, the motif_found [15] is reported as “FALSE”.
For SQRIQTNNNPFQVPIEEQR [RELA 138-142], the motif_found (HD2 library, bait EPS15_EH__P42566_121_215, benchmark motif instance, in_library_check FALSE, in_library_coverage 0) was “FALSE”.
RCVNSRQIRPPPDGSDCTSDLA [RAD54L 690-697] was tested, and the motif_found (HD2 library, bait TNKS_TANK-peptide-bind__O95271_174_649, benchmark motif instance, in_library_check FALSE, in_library_coverage 0) was “FALSE”.
With FEAQWAALEGKATVEK the motif_found (bait MDM2_p53-binding-domain (Q00987 17-125), HD2 library, benchmark motif instance recovered in the ProP-PD selection (TRUE/FALSE)) was “TRUE”, the best_confidence (bait MDM2_p53-binding-domain (Q00987 17-125), HD2 library, confidence level (1-4) of best matching peptide) was 3 and the best_specificity (bait MDM2_p53-binding-domain (Q00987 17-125), HD2 library, specificity score of best matching peptide) was 1.
For PGGTRIIYDRKFLLECKNSPI, the motif_found [17] was “FALSE”.
For KNSSCDTDDFVLVPHNISSD, the motif_found [18] was “FALSE” and the motif_found [19] was “FALSE”.
Work on WEMVPRHSSWGDVGVG yielded an HD2_endomembrane confidence [20] of 4.
For SQPAGISTNPFMTGPSSSP, the motif_found [11] was “FALSE”.
WAKFSNDNIKHSQNMR gave an HD confidence [12] of 4, an HD mean counts [13] of 1.5 and an HD count proportions [14] of 0.0005262.
Work on WTMVDENFSTLSLTQS yielded an HD2_endomembrane confidence [20] of 4.
For SSLEEPHSPETGEKVVAGEV, the motif_found [16] was “FALSE”.
For TNPFQPAPPATLTLNQ, the best_specificity [21] was 1, the best_confidence [22] was 4 and the motif_found [11] was “TRUE”.
With EQVASKGTGLNPNAKVWQEIAPGNTDA the motif_found [4] was “FALSE”.
In the case of QQHEGPSLNPFDEEDLSSP, the motif_found [11] is reported as “FALSE”.
For YAKKVGYTPDWIFLLRNVMRI [CLTC 511-517], the motif_found (HD2 library, bait MAP1LC3A_ATG8__Q9H492_2_121, benchmark motif instance, in_library_check FALSE, in_library_coverage 0) was “FALSE” and the motif_found (HD2 library, bait MAP1LC3B_ATG8__Q9GZQ8_2_119, benchmark motif instance, in_library_check FALSE, in_library_coverage 0) was “FALSE”.
In the case of IREHVTGCARSEGFYTIDKKD, the motif_found [6] is reported as “FALSE”.
AAGPSVASSTNPFQTN was tested, and the best_specificity [21] was 1, the best_confidence [22] was 3 and the motif_found [11] was “TRUE”.
With GRDSPPSWRPQPDGEASQTEDV the motif_found (HD2 library, bait TNKS_TANK-peptide-bind__O95271_174_649, known motif instance of the benchmarking set found (TRUE) or not found (FALSE) among selected peptides) was “FALSE”.
SIDAHTFDFETIPHPNIEQ was tested, and the motif_found [18] was “FALSE” and the motif_found [19] was “FALSE”.
For TPGAALSWQAAIDAARQAKLMG [CACNA1C], the motif_found [15] was “FALSE”.
“SLEQSERRRRLLELQKSKRLDYVNHARRLA,ERRRRLLELQKSKRLDYVNHARR,PRLSQYKSKYSSLEQSERRRRLLELQKSKRLDYVNHARR,EQSERRRRLLELQKSKRLDYVNHARR (UniProt O95149 42-64, looked up, fragment) [SNUPN 42-64]” was tested, and the motif_found (HD2 library, bait KPNB1_Heat_1_Q14974_1_485, benchmark motif instance, in_library_check FALSE, in_library_coverage 0) was “FALSE”.
MDVFMKGLSKAKEGVVAAA [SNCA] was tested, and the motif_found [15] was “FALSE”.
For “LAYLRSHKDEVVKIQSLARMHQARKRYRDRLQYF [IQGAP1 806-825]”, the motif_found [1] was “FALSE”.
KLSKLDVLLLATTYIA showed an HD2_nucleus confidence (bait SIN3A_PAH__Q96ST3_295_383, library HD2 P8 nucleus) of 4.
STASKGRYIPPHLRNREATKG was tested, and the motif_found [17] was “FALSE”.
AAALPQPEVILLDSDLDEPIDL was tested, and the motif_found (HD2 library, bait SUMO1_SUMO__P63165_1_101, known motif instance of the benchmarking set found (TRUE) or not found (FALSE) among selected peptides) was “FALSE”.
In the case of LDPDKPTNFTNPVYATLYMGGH, the motif_found (HD2 library, bait TLN1_PTB__Q9Y490_309_401, known motif instance of the benchmarking set found (TRUE) or not found (FALSE) among selected peptides) is reported as “FALSE”.
KDLATVNSNPFDDPDAAEL was tested, and the motif_found [11] was “FALSE”.
For AMICYRKKRKGKLTLEDQAT, the motif_found [10] was “FALSE”.
KATVEKPSNPFSGDLQKTF was tested, and the motif_found [11] was “FALSE”.

From publication PMC8769072, “Proteome‐scale mapping of binding sites in the unstructured regions of the human proteome” (Molecular Systems Biology, 2022)
